In the assay the target is T1, Msh2–Msh6 (Saccharomyces cerevisiae, UniProt P25847+Q03834, P25847:K694A).
T1 sequence (P25847 1-964 K694A): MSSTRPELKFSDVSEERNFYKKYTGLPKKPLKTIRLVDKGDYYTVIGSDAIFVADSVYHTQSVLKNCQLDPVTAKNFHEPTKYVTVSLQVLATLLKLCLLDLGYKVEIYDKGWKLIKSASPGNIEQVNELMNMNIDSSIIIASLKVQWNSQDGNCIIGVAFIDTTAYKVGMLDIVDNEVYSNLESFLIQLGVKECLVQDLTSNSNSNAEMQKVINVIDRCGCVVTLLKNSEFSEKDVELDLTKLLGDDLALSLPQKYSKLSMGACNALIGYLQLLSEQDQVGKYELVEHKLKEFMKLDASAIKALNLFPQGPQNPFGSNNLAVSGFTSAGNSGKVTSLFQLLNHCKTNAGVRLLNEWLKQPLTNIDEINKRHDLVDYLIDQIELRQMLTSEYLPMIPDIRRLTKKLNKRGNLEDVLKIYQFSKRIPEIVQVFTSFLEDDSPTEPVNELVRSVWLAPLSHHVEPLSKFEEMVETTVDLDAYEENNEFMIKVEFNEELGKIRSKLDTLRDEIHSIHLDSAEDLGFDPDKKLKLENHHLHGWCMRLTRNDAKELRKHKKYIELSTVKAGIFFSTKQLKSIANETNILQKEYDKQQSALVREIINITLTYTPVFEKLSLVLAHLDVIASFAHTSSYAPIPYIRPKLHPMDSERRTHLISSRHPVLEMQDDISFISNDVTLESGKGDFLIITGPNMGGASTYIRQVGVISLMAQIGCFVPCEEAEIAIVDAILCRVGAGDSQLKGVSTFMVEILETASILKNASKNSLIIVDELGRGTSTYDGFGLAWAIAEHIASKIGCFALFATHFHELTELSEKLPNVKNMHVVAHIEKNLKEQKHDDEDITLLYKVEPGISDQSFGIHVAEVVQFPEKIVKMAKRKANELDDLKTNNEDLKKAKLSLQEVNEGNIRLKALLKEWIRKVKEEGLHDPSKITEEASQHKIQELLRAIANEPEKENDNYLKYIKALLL
T1 sequence (Q03834 1-1242): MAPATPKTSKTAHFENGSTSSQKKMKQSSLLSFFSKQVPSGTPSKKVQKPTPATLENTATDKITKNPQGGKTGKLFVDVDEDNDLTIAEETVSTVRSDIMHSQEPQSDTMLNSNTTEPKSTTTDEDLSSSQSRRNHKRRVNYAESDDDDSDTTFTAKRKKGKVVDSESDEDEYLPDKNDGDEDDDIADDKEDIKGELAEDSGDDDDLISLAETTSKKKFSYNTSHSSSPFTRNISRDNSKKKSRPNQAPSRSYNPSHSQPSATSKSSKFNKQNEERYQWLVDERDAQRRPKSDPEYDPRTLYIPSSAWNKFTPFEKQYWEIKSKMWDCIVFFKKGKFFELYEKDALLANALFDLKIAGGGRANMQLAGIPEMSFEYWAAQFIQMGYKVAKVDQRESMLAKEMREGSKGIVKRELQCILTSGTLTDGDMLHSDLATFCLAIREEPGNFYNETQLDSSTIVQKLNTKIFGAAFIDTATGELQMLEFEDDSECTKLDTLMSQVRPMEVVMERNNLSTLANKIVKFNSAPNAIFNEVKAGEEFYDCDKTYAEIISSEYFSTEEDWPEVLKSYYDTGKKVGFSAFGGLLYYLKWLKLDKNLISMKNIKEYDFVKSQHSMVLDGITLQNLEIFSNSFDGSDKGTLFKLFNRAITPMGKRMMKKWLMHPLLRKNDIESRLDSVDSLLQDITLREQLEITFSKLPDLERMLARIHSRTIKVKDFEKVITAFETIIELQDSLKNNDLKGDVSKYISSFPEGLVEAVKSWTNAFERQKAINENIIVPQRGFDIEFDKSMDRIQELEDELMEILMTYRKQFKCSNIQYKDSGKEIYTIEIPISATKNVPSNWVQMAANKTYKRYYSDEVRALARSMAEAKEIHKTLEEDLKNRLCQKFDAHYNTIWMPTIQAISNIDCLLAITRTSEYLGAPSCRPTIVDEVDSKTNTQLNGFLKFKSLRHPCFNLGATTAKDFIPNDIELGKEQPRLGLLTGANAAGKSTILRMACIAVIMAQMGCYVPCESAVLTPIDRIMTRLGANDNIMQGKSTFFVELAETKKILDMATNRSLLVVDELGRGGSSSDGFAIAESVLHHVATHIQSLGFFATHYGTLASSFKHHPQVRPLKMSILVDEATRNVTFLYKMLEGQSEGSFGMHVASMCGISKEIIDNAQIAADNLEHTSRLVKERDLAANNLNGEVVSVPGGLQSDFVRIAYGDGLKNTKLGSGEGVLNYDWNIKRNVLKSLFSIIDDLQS
As to the kind of experiment: UV cross-linking of [γ-32P]ATP, SDS-PAGE, phosphorimaging. The class given is binding. Conditions: labelled compound; no Mg2+, EDTA, pH 8, on ice; Msh2 site at 60 μM ATP, Msh6 site at 1 μM ATP.

Consider one compound from publication PMC6254361, “The properties of Msh2–Msh6 ATP binding mutants suggest a signal amplification mechanism in DNA mismatch repair” (The Journal of Biological Chemistry, 2018).

For the compound `Nc1ncnc2c1ncn2[C@@H]1O[C@H](COP(=O)(O)OP(=O)(O)OP(=O)(O)O)[C@@H](O)[C@H]1O` [ATP], the “relative ATP binding” value is “Msh2(K694A)–Msh6 and Msh2(K694R)–Msh6 mutant complexes were defective for ATP binding to both”.
